Test [1] concerns aortic rings from Arg2−/− mice. Nature of the test: Force tension (wire) myography, vascular relaxation of aortic rings from Arg2-/- mice. It is filed as cell-based, mouse. To be noted: Arg2−/− mice; TSA 200 nmol/L; n=6. How it is done: Mouse aorta was isolated and cleaned in ice-cold Krebs-Ringer-bicarbonate solution containing the following (in mM): 118.3 NaCl, 4.7 KCl, 1.6 CaCl2, 1.2 KH2 PO4, 25 NaHCO3, 1.2 MgSO4, and 11.1 dextrose. The aorta was immersed in a bath filled with constantly oxygenated Krebs buffer at 37° C. Equal size thoracic aortic rings (2 mm) were mounted using a microscope, ensuring no damage to the smooth muscle or endothelium. One end of the aortic rings was connected to a transducer, and the other to a micromanipulator. Aorta was passively stretched to an optimal resting tension using the micromanipulator, after which a dose of 60 mM KCl was administered, and repeated after a wash with Krebs buffer. After these washes, all vessels were allowed to equilibrate for 20-30 min in the presence of indomethacin (3 μM). Phenylephrine (1 μM) was administered to induce vasoconstriction. A dosedependent response (1 nM to 10 μM), with the muscarinic agonist, ACH or nitric oxide donor, SNP, was then performed as necessary. The responses were repeated in the presence of inhibitors. Relaxation responses were calculated as a percentage of tension following pre-constriction. Sigmoidal dose-response curves were fitted to data with the minimum constrained to 0. Two to four rings were isolated from each animal and the number of animals in each group (n) was 6.

Test [2] relates to arginase activity in HAECs. Nature of the test: Arginase activity assay (urea production) in HAEC lysates. Type of test: cell-based, human. The method, then:
HAEC were lysed using RIPA buffer (50 mM of Tris.HCl, pH 7.5, 0.1 mM EDTA, 0.1% Triton X-100, and protease inhibitor), and centrifuged for 30 min at 14,000 g at 4° C. 50 μL (50-100 μg) of supernatant was added to 75 μl of 10 mM MnCl2 made in Tris-HCl (50 mM, pH 7.5) and heat activated by incubating at 55-60° C. for 10 min. 50 μL of L-Arginine that was prepared in 300 mM Tris-HCL, pH 9.7 were then added to the activated cell lysates to achieve final concentrations of 150 mM and incubated at 37° C. for 3 hrs with shaking. The reaction was stopped by adding 400 μL of an acid solution (H2SO4: H3PO4: H20=1:3:7). For colorimetric determination of urea, α-isonitrosopropiophenone (25 μL, 9% in ethanol) was added and further heated at 100° C. for 45 min. Samples were allowed to cool at room temperature in the dark for 10 min and urea concentration was determined by measuring absorbance at 550 nm using a spectrophotometer.

Test [3] deals with arginase activity in mice aortas. Nature of the test: Arginase activity in isolated segments of mice aorta. Type of test: cell-based, mouse. To be noted: TSA 200 nmol/L.
In the next test the test system is Arg2. The test can be described thus: Arg2 protein expression in HAECs (Western blot). Type of test: cell-based, human. How it is done: (§1) After 48 hrs of HAEC cells transfection, cells were lysed in ice cold RIPA lysis buffer consisting of 20 mM Tris-HCl at pH 7.5, 150 mM NaCl, 1 mM EDTA, 1 mM EGTA, 1% NP40, 1% sodium deoxycholate, 1 mM Na3VO4, 2.5 mM sodium pyrophosphate, 1 mM 3-glycerophosphate, 1 μg/mL leupeptin, and a 1:1000 diluted protease inhibitor cocktail (Sigma). For immunoprecipitation studies, whole cell lysate lysates were centrifuged at 14,000×g and supernatants were precleared by incubation with Protein A/G-agarose beads for 2 h at 4° C. with rocking. Agarose beads were then pelleted by centrifugation at 1,000×g. FLAG-Arg2 in precleared lysates were immunoprecipitated by incubation overnight at 4° C. with rocking following addition of anti-FLAG antibody (10 μl). Immune complexes were eluted in 2×SDS sample buffer by boiling for 5 minutes before loading into SDS-PAGE. Western blotting analysis was performed by transferring the SDS gel onto a PVDF membrane and visualized using secondary antibodies conjugated to alkaline phosphatases.

Another test has as its system Arg2 mRNA. Nature of the test: Arg2 mRNA in HAECs (RT-PCR, real-time PCR). It is filed as cell-based, human. The settings on record: preincubated with TSA. The method, then:
Total RNA was extracted from segments of mice aortas and HAEC using Trizol and PureLink (Invitrogen). RNA was then reverse transcribed with oligo dT primers to obtain cDNA and quantitative real time PCR (Applied Biosystems) was performed using SYBR Green Supermix mix (Applied Biosystems) whereas semiquantitative RTPCR was performed using conventional Biorad PCR machine and the following primer sets: Real Time PCR data are expressed as “fold change”, which is calculated as 2-ΔΔCt.

In another test the test system is Arg2 ubiquitination. The test can be described thus: Arg2 ubiquitination in HAECs (immunoprecipitation). It is filed as cell-based, human. To be noted: preincubation with TSA; MG132 10 μmol/L in all groups. How it is done:
as §1
Posttranslational modification by ubiquitin subjects proteins to proteasomal degradation and, therefore, affects their abundance. Because both acetylation and ubiquitination target lysine residues of proteins, there is a significant cross talk between these 2 pathways (Yang et al., 2008 Mol Cell, 31:449-461). […]

The next test has as its system NO production in HAECs. The test can be described thus: Nitric oxide production in HAECs (DAF-DA fluorescence, Siever's NO analyzer). Type of test: cell-based, human. To be noted: TSA 1 μmol/L. How it is done:
(§2) Nitric Oxide levels in HAEC were determined using DAF-DA as per manufacture instructions (Life Sciences). Briefly, cells were loaded with DAF-DA (5 μM) for 20 min and washed 3 times with PBS and incubated for another 30 min in phenol-free media. Fluorescence was determined using a Nikon TE-200 epifluorescence microscope. Images were captured with a Rolera EMC2 camera (Q-Imaging, BC, Canada) with Velocity software (PerkinElmer, Lexington, Mass.). NO production in the cell culture media was also determined by measuring Nitrite levels using a Siever's NO analyzer. NO radicals were measured in cell media collected after 24 hours of treatment using the Oxiselect assay (Cell Biolabs, San Diego, Calif.).

Test [4] has as its system calcium-insensitive eNOS in HEK 293 cells. Nature of the test: NO radicals in medium of HEK 293 cells expressing calcium-insensitive eNOS (DCFH-DiOxyQ assay). To be noted: TSA alone. It is filed as cell-based, human. How it is done:
as §2
Next, the functional consequences of HDAC inhibition on downstream endothelial cell signaling were evaluated. Because eNOS-derived NO plays a central role in endothelial function, eNOS activity was assessed by measuring NO production using 3 different assays. […] HEK 293 cells lack native eNOS expression, but do produce abundant Arg2. Cell medium from 293 cells transfected with a control plasmid (LacZ) was used as a control background signal that was subtracted from all the groups containing calcium-insensitive endothelial nitric oxide synthase.

Another test concerns eNOS. Nature of the test: eNOS expression in HAECs (immunoblot). It is filed as cell-based, human. The settings on record: 1 μmol/L, 18 hours. The method, then: as §1

Each structure is given as a SMILES string.

Consider `CC(/C=C/C(=O)NO)=C\[C@@H](C)C(=O)c1ccc(N(C)C)cc1` [TSA, trichostatin A], for which, in test [1], the “Emax endothelial cell-dependent vasorelaxation” value was 66.3±7.54%. For the same compound, the “HAEC arginase activity, short-term” value in test [2] (30 minutes, nicotinamide 5 mmol/L, TSA 1 μmol/L) was “no effect”. Also, the total arginase activity entry in [2] (TSA 400 nmol/L, 18 hours) was “increased”. Also, the arginase activity result in test [3] is listed as “robust increase”. Moreover, in the test on Arg2 (1 μmol/L, 18 hours), the “Arg2 expression, broad-spectrum HDAC inhibitors” value is reported as “upregulated”. Besides, the “concentration of maximum effect on Arg2 protein” value in the test with Arg2 (18 hours) turned out to be 1 µmol/L. For the same compound, in the test with Arg2 (TSA 0, 0.1, 0.3, and 1 μmol/L, 18 hours), the “Arg2 protein expression, dose dependence” value is on record as “dose-dependent fashion”. Further, the Arg2 expression result in the test on Arg2 (TSA 400 nmol/L, 18 hours) was “increased”. In the test on Arg2 (TSA 1 μmol/L), the “time at which increase in Arg2 protein expression is observed” value stood at 8 h. Also, the “Arg2 mRNA” value in the test on Arg2 mRNA is “substantially upregulated”. The “ubiquitination of Arg2” value in the test with Arg2 ubiquitination is “no effects”. The NO production entry is given as “significantly decreased” with NO production in HAECs and “decreased” in [4]. Besides, the eNOS expression entry in the test with eNOS is on record as “negligible effect”.

These data come from US20160199463A1, “HDAC2 DEFENDS VASCULAR ENDOTHELIUM FROM INJURY” (The Johns Hopkins University, priority 2014, published 2016).
